In data set [1] the test system is dog. Particulars: Chronic toxicity; beagle; Oral; Feed; dose end: 52 week; group: systemic; systemic / hematology / erythrocyte (rbc) count differential / erythrocyte (rbc) + systemic / hematology / hemoglobin (hgb) / hemoglobin (….
In data set [2] the test system is rat. Particulars: Prenatal developmental toxicity study, sprague dawley, Oral, Gavage/Intubation, dose end: 16 GD.
The subject of data set [3] is mouse. Particulars: Carcinogenicity; cd1; Oral; [Not Specified]; dose end: 104 week; group: systemic; systemic / in life observation / body weight / body weight + systemic / in life observation / body weight / body weight gain.
The test system of data set [4] is rabbit. Particulars: Prenatal developmental toxicity study, new zealand white, Oral, Gavage/Intubation, dose end: 19 GD.
Data set [5] deals with dog. The settings on record: Chronic toxicity; beagle; Oral; Feed; dose end: 52 week; group: systemic; systemic / hematology / erythrocyte (rbc) count differential / erythrocyte (rbc) + systemic / hematology / hemoglobin (hgb) / hemoglobin (…. This is another data set of the same source.
The test system of data set [6] is rat. Particulars: Combined chronic toxicity/carcinogenicity, sprague dawley, Oral, Feed, dose end: 24 month, group: systemic.
Data set [7] has as its system mouse. Particulars: Subchronic oral toxicity in rodents, cd1, Feed, dose end: 13 week, group: systemic.
Data set [8] has as its system rat. Particulars: Multigenerational reproductive toxicity study, sprague dawley, Oral, Feed, dose end: 2 generation.
Data set [9] relates to mouse. Particulars: Combined chronic toxicity/carcinogenicity, cd1, Oral, Feed, dose end: 104 week, group: systemic.
The subject of data set [10] is rat. Particulars: Prenatal developmental toxicity study, sprague dawley, Oral, Gavage/Intubation, dose end: 15 GD.
Data set [11] deals with rat. The settings on record: Subchronic oral toxicity in rodents, other, Feed, dose end: 13 week.
Data set [12] relates to rat. Particulars: Subchronic oral toxicity in rodents, sprague-dawley, Feed, dose end: 13 week, group: systemic.
The subject of data set [13] is rat. The settings on record: Combined chronic toxicity/carcinogenicity, other, Oral, Gavage/Intubation, dose end: 104 week, group: systemic.
Data set [14] deals with rabbit. Particulars: Prenatal developmental toxicity study, new zealand white, Oral, Gavage/Intubation, dose end: 18 GD.
Data set [15] relates to rat. Particulars: Subchronic oral toxicity in rodents, fischer, Gavage/Intubation, dose end: 13 week, group: systemic.
Data set [16] has as its system mouse. The settings on record: Subchronic oral toxicity in rodents, b6c3f1, Gavage/Intubation, dose end: 13 week, group: systemic.
The test system of data set [17] is rat. Particulars: Combined chronic toxicity/carcinogenicity, sprague dawley, Dermal, Topical, dose end: 24 month, group: systemic.
The test system of data set [18] is rat. Particulars: Subchronic oral toxicity in rodents, sprague dawley, Feed, dose end: 14 week, group: systemic.
Where [19] appears, read: group: developmental, systemic / in life observation / body weight / fetal weight.
The mark [20] stands for this setting: group: maternal, systemic / in life observation / clinical signs / alopecia + systemic / in life observation / clinical signs / vaginal discharge.
The mark [21] stands for this setting: group: maternal, systemic / in life observation / clinical signs / alopecia + systemic / in life observation / clinical signs / vaginal discharge + systemic….
[22] abbreviates: group: developmental, developmental / developmental malformation / aorta / double + developmental / developmental malformation / gallbladder / absent + ….
Setting [23] is: group: maternal, systemic / in life observation / body weight / body weight gain.
Where [24] appears, read: group: maternal, systemic / in life observation / body weight / body weight gain + reproductive / reproductive performance / aborted / aborted + systemic / ….
Where [25] appears, read: systemic / in life observation / clinical signs / hyperactivity.
[26] abbreviates: systemic / in life observation / clinical signs / hyperactivity + systemic / in life observation / body weight / body weight + systemic / in….
The mark [27] stands for this setting: systemic / organ weight / liver / relative to body weight.
[28] abbreviates: group: offspring, systemic / in life observation / clinical signs / tremors + systemic / in life observation / body weight / litter weight + systemic / in ….
Setting [29] is: group: offspring, systemic / in life observation / clinical signs / tremors + systemic / pathology gross / skin / ulcer.
The mark [30] stands for this setting: group: parental, systemic / pathology gross / skin / ulcer.
Where [31] appears, read: systemic / pathology gross / skin / lesion(s) (nos) + systemic / pathology microscopic / skin / inflammation.
Setting [32] is: group: developmental, developmental / developmental malformation / bone / absent + developmental / developmental malformation / bone / delayed ossification + ….
Where [33] appears, read: group: maternal, systemic / in life observation / body weight / body weight gain + systemic / in life observation / clinical signs / blood around eyes and ….
[34] abbreviates: group: cholinesterase, cholinesterase / cholinesterase / cholinesterase / erythrocyte cholinesterase (che).
Where [35] appears, read: group: systemic, systemic / hematology / erythrocyte (rbc) count differential / erythrocyte (rbc) + systemic / hematology / hematocrit (hct) / hematocrit (….
Where [36] appears, read: systemic / organ weight / heart / relative to body weight.
Where [37] appears, read: systemic / in life observation / body weight / body weight + systemic / in life observation / water consumption / water consumption + ….
Where [38] appears, read: systemic / pathology microscopic / mammary gland / fibroadenoma.
Where [39] appears, read: group: developmental, developmental / developmental malformation / bone / short.
The mark [40] stands for this setting: group: developmental, developmental / developmental malformation / bone / short + developmental / developmental malformation / bone / [other].
Setting [41] is: group: maternal, reproductive / offspring survival early / offspring survival early other / NOS + reproductive / reproductive performance / resorptions / ….
[42] abbreviates: systemic / clinical chemistry / urea nitrogen / urea nitrogen + systemic / hematology / neutrophils / neutrophils + systemic / in life ….
The mark [43] stands for this setting: systemic / in life observation / body weight / body weight + systemic / in life observation / body weight / body weight gain + systemic / in….
[44] abbreviates: systemic / hematology / hemoglobin (hgb) / hemoglobin (hgb).
Setting [45] is: systemic / hematology / hemoglobin (hgb) / hemoglobin (hgb) + systemic / hematology / erythrocyte (rbc) count differential / erythrocyte (….
The mark [46] stands for this setting: systemic / pathology microscopic / skin / hyperkeratosis.
The mark [47] stands for this setting: systemic / pathology microscopic / skin / hyperkeratosis + systemic / pathology microscopic / skin / acanthosis + systemic / clinical ….
The mark [48] stands for this setting: systemic / in life observation / body weight / body weight + systemic / in life observation / body weight / body weight gain + systemic / ….

Molecules are shown by their SMILES. A value given as a limit tells only on which side of the number the result lay.

Usually LOAEL stands for the lowest tested level that showed an adverse finding. By NOAEL is commonly meant the highest tested level that showed no adverse finding. Regarding `COc1nc(C)nc(NC(=O)NS(=O)(=O)c2ccccc2Cl)n1` [Chlorsulfuron], the LEL turned out to be 254 mg/kg/day with dog [1]; 1500 mg/kg/day in the data set on rat [2] (setting [19]); 500 mg/kg/day in the data set on rat [2] (setting [20]); 750 mg/kg/day in the data set on mouse [3]; 400 mg/kg/day in the data set on rabbit [4] (setting [22]); 200 mg/kg/day in the data set with rabbit [4] (setting [23]). Further, the LEL in the data set on dog [5] worked out at 254 mg/kg/day; in the data set on rat [6] (setting [25]), 30 mg/kg/day. For the same compound, the lowest observed adverse effect level (LOAEL) in the data set on dog [1] amounted to 254 mg/kg/day; in the data set with rat [2] (setting [19]) it was 1500 mg/kg/day; with rat [2] (setting [20]), 500 mg/kg/day; with mouse [3] it was 750 mg/kg/day; in the data set with rabbit [4] (setting [22]), 400 mg/kg/day; with rabbit [4] (setting [23]), 200 mg/kg/day. Also, the LOAEL with dog [5] is 254 mg/kg/day; in the data set on rat [6] (setting [25]), 30 mg/kg/day. In addition, the NEL in the data set with dog [1] turned out to be 60.6 mg/kg/day; in the data set with rat [2] (setting [19]) it was 500 mg/kg/day; in the data set on rat [2] (setting [21]), 165 mg/kg/day; with mouse [3], 108 mg/kg/day; in the data set with rabbit [4] (setting [22]), 200 mg/kg/day; with rabbit [4] (setting [24]), 75 mg/kg/day. Also, the NEL with dog [5] was 60.6 mg/kg/day; in the data set with rat [6] (setting [26]), 2 mg/kg/day. The NOAEL in the data set with dog [1] worked out at 60.6 mg/kg/day; in the data set on rat [2] (setting [19]), 500 mg/kg/day; in the data set with rat [2] (setting [21]) it was 165 mg/kg/day; with mouse [3] it was 108 mg/kg/day; in the data set on rabbit [4] (setting [22]) it was 200 mg/kg/day; in the data set on rabbit [4] (setting [24]), 75 mg/kg/day. Also, the results for the no-observed-adverse-effect level (NOAEL) in the data set on dog [5] and in the data set with rat [6] (setting [26]) were 60.6 mg/kg/day and 2 mg/kg/day, respectively.

Take `CC(C)C(Nc1ccc(C(F)(F)F)cc1Cl)C(=O)OC(C#N)c1cccc(Oc2ccccc2)c1` (stereo unspecified) [Fluvalinate]: the LEL in the data set with mouse [7] (setting [27]) worked out at 1 mg/kg/day; in the data set with rat [8] (setting [28]) it was 9.53 mg/kg/day; in the data set on rat [8] (setting [30]), 9.53 mg/kg/day; in the data set with mouse [9] (setting [31]), 10 mg/kg/day; in the data set with rat [10] (setting [32]), 50 mg/kg/day; in the data set on rat [10] (setting [23]), 10 mg/kg/day. In addition, the LEL in the data set with rat [11] (setting [34]) stood at 18.8 mg/kg/day; in the data set on rat [11] (setting [35]), 1.82 mg/kg/day; with rat [12] (setting [36]), 0.3 mg/kg/day; in the data set with rat [13] (setting [38]) it was 0.25 mg/kg/day; in the data set on rabbit [14] (setting [39]), 125 mg/kg/day; in the data set with rabbit [14] (setting [41]), 125 mg/kg/day. For the same compound, the NEL was below 1 mg/kg/day with mouse [7] (setting [27]); 1.9 mg/kg/day in the data set with rat [8] (setting [29]); 1.9 mg/kg/day in the data set on rat [8] (setting [30]); 2 mg/kg/day in the data set with mouse [9] (setting [31]); 10 mg/kg/day with rat [10] (setting [32]); 2 mg/kg/day with rat [10] (setting [33]). For the same compound, the NEL was 7.7 mg/kg/day in the data set on rat [11] (setting [34]); below 1.82 mg/kg/day with rat [11] (setting [35]); below 0.3 mg/kg/day in the data set on rat [12] (setting [36]); below 0.25 mg/kg/day with rat [13] (setting [38]); 25 mg/kg/day in the data set with rabbit [14] (setting [40]); 25 mg/kg/day with rabbit [14] (setting [41]). Moreover, the NOAEL in the data set with mouse [7] (systemic / pathology gross / skin / lesion(s) (nos) + systemic / hematology / erythrocyte (rbc) count differential / erythrocyte (rbc) + …) was 3 mg/kg/day; in the data set on rat [8] (setting [29]) it was 1.9 mg/kg/day; in the data set with rat [8] (setting [30]), 1.9 mg/kg/day; with mouse [9] (systemic / pathology microscopic / kidney / inflammation + systemic / pathology gross / skin / lesion(s) (nos) + systemic / pathology …), 10 mg/kg/day; with rat [10] (setting [32]) it was at least 50 mg/kg/day; in the data set on rat [10] (setting [33]), 2 mg/kg/day. For the same compound, the NOAEL was at least 116 mg/kg/day in the data set on rat [11] (setting [34]); below 1.82 mg/kg/day in the data set with rat [11] (setting [35]); 3 mg/kg/day in the data set with rat [12] (systemic / hematology / erythrocyte (rbc) count differential / erythrocyte (rbc) + systemic / clinical chemistry / albumin / albumin + …); 1 mg/kg/day in the data set on rat [13] (setting [37]); 25 mg/kg/day in the data set on rabbit [14] (setting [40]); 25 mg/kg/day with rabbit [14] (setting [41]). The lowest-observed-adverse-effect level (LOAEL) is 30 mg/kg/day in the data set on mouse [7] (systemic / pathology gross / skin / lesion(s) (nos) + systemic / in life observation / body weight / body weight); 9.53 mg/kg/day with rat [8] (setting [28]); 9.53 mg/kg/day in the data set on rat [8] (setting [30]); 20 mg/kg/day in the data set on mouse [9] (systemic / pathology microscopic / kidney / inflammation); above 50 mg/kg/day with rat [10] (setting [32]); 10 mg/kg/day in the data set on rat [10] (setting [23]). The lowest-observed-adverse-effect level (LOAEL) with rat [11] (setting [34]) is above 116 mg/kg/day; in the data set on rat [11] (setting [35]), 1.82 mg/kg/day; in the data set with rat [12] (systemic / hematology / erythrocyte (rbc) count differential / erythrocyte (rbc)), 30 mg/kg/day; in the data set with rat [13] (setting [37]), 2.5 mg/kg/day; with rabbit [14] (setting [39]) it was 125 mg/kg/day; with rabbit [14] (setting [41]) it was 125 mg/kg/day.

As to `O=C1OC(=O)c2c(Cl)c(Cl)c(Cl)c(Cl)c21` [Tetrachlorophthalic anhydride], in the data set with rat [15] (setting [42]), the lowest-observed-adverse-effect level (LOAEL) is above 1500 mg/kg/day and the NOAEL is at least 1500 mg/kg/day. Moreover, in the data set on rat [15] (setting [43]), the LEL was 94 mg/kg/day and the NEL was below 94 mg/kg/day. In the data set on mouse [16] (setting [44]), this compound had an LEL of 94 mg/kg/day and an NEL below 94 mg/kg/day. In the data set on mouse [16] (setting [45]), the LOAEL is above 1500 mg/kg/day and the no-observed-adverse-effect level (NOAEL) is at least 1500 mg/kg/day.

Regarding `CCC(C)OC(=O)N1CCCCC1CCO` (stereo unspecified) [Icaridin], in the data set on rat [17] (setting [46]), the LEL was found to be 50 mg/kg/day and the NEL is below 50 mg/kg/day. In the data set on rat [17] (setting [47]), the LOAEL was above 200 mg/kg/day and the NOAEL was at least 200 mg/kg/day. For the same compound, in the data set on rat [18] (setting [48]), the LOAEL amounted to 1030 mg/kg/day, the NEL is 100 mg/kg/day and the NOAEL came to 301 mg/kg/day. The LEL with rat [18] (systemic / organ weight / kidney / relative to body weight + systemic / clinical chemistry / alanine aminotransferase (alt/sgpt) / alanine …) was determined as 149 mg/kg/day.
